Structures are written as SMILES.

Here are results for six compounds from patent US20070179181A1, “Treatment of inflammatory disorders and pain using beta-aminoalcohols” (priority 2004, published 2007).

For experiment [1], the system named is alpha1 adrenoceptor. As to the kind of experiment: Alpha1 adrenoceptor binding affinity (3H-prazosin, rat brain homogenate). Further details: species or system Wistar rats. The following applies: radioligand 3H-prazosin 0.25 nM. The method, then:
Adrenoceptor Binding Affinity Brains from Wistar rats were homogenised and incubated with test article (over a concentration range) and the radioligand 3H-prazosin (0.25 nM) for 30 minutes at 25° C., in a 50 mM Tris-HCl, 0.1% ascorbic acid, 10 μM pargyline incubation buffer. After washing, binding was measured by scintillation counting. LPS Mouse Assay

Experiment [2] deals with rat adjuvant model of arthritis. As to the kind of experiment: Rat adjuvant assay (model of arthritis). Format: in vivo, Wistar rats. The method, then:
Rat Adjuvant Assay Male Wistar rats (180 to 200 g) were inoculated by subplantar injection of freund's adjuvant (suspension of Mycobacterium butyricum in mineral oil) into the right paw at day 0. Sham inoculations were injected in the same way with 0.9% saline in matched Male Wistar rats. On day 2 animals were weighed. On days 3, 4, 7, 9 and 11 animals were weighed and both their right and left hind paws were measure by plethsymometry by submerging the paw up to the tibiotarsal joint. On day 11, rats with left hind paw volumes increased by 20% were selected for continuance in the study. On the same day continuance rats were administered test article orally (10 ml/kg in distilled water) and from then on once a day until the completion of the study. Left and right hind paw volumes were measured on days 11, 14, 15, 16, 18 and 21.

The subject of experiment [3] is TNFα. As to the kind of experiment: LPS mouse assay, serum TNFα. The experiment is classed as in vivo, Balb C ByJ mice. Conditions: LPS-challenged mouse. On the procedure:
Brains from Wistar rats were homogenised and incubated with test article (over a concentration range) and the radioligand 3H-prazosin (0.25 nM) for 30 minutes at 25° C., in a 50 mM Tris-HCl, 0.1% ascorbic acid, 10 μM pargyline incubation buffer. After washing, binding was measured by scintillation counting. LPS Mouse Assay
7 week old Balb C ByJ mice (24-28 g) were administered, either by i.p. (5 ml/kg) or oral (10 ml/kg) administration, with vehicle or test article. 30 minutes later these animals were challenged with an intraperitoneal injection of 1 mg/kg LPS. 2 hours after LPS challenge blood samples were collected under light isoflurane anaesthesia into normal tubes by retro-orbital puncture. Samples were allowed to clot at room temperature and then spun at 6000 g for 3 min at 4° C. Serum was stored at −20° C. until use. Serum TNFa and IL-10 levels were analysed in duplicate by ELISA technique.

In experiment [1], `CC(C(O)c1ccc(O)cc1)N1CCC(Cc2ccccc2)CC1` (stereo not drawn) [erythro (−), Ifenprodil] had an Alpha1 affinity of 482 nM. In the case of `CC(CCc1ccccc1)NCC(O)c1ccc(O)c(C(N)=O)c1` (stereo not shown) [labetalol], the “efficacy in rat adjuvant model of arthritis” value in experiment [2] (30 mg/kg) and in experiment [2] (100 mg/kg) was “Pronounced (and similar) efficacy” in each case. On to `CC(NCCc1ccc(O)cc1)C(O)c1ccc(O)cc1` (stereo not shown) [ritodrine], for which the “LPS-induced systemic TNFα release in mouse blood” value in experiment [3] is recorded as “cytokine modulatory activity”. Take `CC(C(O)c1ccc(O)cc1)N1CCC(Cc2ccccc2)CC1` (stereo not drawn) [threo (−), Ifenprodil]: the Alpha1 affinity in experiment [1] worked out at 439 nM. The same measure, in the same setting: for `CC(C(O)c1ccc(O)cc1)N1CCC(Cc2ccccc2)CC1` (stereo not drawn) [threo (+), Ifenprodil] the value was 2160 nM; for `CC(C(O)c1ccc(O)cc1)N1CCC(Cc2ccccc2)CC1` (stereo not drawn) [erythro (+), Ifenprodil], 63 nM.
